The source made the active and inactive calls. The calls are words filed in the database; no cut-off is given here.
Tests used:
Cavia porcellus = organism: Cavia porcellus; assay: Selectivity ratio of Ki for guinea pig brain sigma1 receptor to Ki for guinea pig brain sigma2 receptor
[1] = Displacement of [3H]DTG from guinea pig brain sigma2 receptor after 120 mins by scintillation counting analysis in presence of SKF10,047; set-up: species or system Cavia porcellus
[2] = target: Sigma non-opioid intracellular receptor 1 (Cavia porcellus, UniProt Q60492); assay: Displacement of [3H]-(+)-pentazocine from guinea pig brain sigma1 receptor after 150 mins by scintillation counting analysis
[3] = target: Glutamate receptor ionotropic, NMDA 2B (Rattus norvegicus) (UniProt Q00960); assay: Displacement of [3H]ifenprodil from Wistar rat cerebral cortex glutamate NMDA receptor GluN2B subunit at 10 uM after 120 mins by scintillation counting analysis; assay type: tissue-based
[4] = target: Glutamate receptor ionotropic, NMDA 2B (Rattus norvegicus, UniProt Q00960); assay: Displacement of [3H]ifenprodil from Wistar rat cerebral cortex glutamate NMDA receptor GluN2B subunit after 120 mins by scintillation counting analysis; assay type: tissue-based
Glutamate receptor ionotropic, NMDA 2B, sequence (Q00960 whole entry): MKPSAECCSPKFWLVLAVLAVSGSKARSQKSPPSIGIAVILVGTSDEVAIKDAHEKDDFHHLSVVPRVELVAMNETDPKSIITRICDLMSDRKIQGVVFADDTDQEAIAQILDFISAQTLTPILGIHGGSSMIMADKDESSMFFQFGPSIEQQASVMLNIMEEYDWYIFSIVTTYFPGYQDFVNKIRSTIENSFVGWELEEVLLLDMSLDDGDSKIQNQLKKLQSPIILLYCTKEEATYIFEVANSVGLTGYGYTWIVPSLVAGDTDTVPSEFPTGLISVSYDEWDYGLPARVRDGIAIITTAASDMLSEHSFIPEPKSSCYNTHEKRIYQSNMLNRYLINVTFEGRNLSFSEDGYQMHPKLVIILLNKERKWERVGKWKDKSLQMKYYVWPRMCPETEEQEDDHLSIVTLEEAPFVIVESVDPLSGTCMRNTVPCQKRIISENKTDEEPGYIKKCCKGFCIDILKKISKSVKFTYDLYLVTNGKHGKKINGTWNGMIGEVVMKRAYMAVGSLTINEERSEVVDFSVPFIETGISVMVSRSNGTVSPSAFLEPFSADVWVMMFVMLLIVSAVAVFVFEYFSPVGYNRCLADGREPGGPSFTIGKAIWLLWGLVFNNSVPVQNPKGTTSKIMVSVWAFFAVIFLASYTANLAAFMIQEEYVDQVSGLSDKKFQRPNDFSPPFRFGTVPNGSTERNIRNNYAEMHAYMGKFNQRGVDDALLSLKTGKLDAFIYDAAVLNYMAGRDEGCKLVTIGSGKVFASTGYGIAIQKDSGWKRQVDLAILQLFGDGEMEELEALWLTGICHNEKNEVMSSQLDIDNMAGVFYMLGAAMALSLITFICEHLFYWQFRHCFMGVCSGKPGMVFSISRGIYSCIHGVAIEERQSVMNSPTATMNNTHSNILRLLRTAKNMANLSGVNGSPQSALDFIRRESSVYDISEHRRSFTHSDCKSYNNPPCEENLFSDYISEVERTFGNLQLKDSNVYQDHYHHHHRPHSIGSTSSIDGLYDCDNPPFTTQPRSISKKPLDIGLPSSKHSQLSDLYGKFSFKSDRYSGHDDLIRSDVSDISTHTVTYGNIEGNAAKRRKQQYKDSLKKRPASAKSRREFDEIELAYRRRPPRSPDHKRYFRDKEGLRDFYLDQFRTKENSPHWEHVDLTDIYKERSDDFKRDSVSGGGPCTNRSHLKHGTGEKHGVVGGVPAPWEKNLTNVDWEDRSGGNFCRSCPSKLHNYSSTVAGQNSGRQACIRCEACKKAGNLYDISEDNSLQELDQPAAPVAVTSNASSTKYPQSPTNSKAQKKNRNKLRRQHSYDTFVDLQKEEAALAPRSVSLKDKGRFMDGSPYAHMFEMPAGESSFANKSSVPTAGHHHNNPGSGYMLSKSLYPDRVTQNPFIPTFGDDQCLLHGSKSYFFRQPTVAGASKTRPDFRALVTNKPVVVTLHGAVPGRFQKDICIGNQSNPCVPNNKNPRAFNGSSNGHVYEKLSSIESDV

Glutamate receptor ionotropic, NMDA 2B (Rattus norvegicus), sequence (Q00960 27-1482 limits assumed): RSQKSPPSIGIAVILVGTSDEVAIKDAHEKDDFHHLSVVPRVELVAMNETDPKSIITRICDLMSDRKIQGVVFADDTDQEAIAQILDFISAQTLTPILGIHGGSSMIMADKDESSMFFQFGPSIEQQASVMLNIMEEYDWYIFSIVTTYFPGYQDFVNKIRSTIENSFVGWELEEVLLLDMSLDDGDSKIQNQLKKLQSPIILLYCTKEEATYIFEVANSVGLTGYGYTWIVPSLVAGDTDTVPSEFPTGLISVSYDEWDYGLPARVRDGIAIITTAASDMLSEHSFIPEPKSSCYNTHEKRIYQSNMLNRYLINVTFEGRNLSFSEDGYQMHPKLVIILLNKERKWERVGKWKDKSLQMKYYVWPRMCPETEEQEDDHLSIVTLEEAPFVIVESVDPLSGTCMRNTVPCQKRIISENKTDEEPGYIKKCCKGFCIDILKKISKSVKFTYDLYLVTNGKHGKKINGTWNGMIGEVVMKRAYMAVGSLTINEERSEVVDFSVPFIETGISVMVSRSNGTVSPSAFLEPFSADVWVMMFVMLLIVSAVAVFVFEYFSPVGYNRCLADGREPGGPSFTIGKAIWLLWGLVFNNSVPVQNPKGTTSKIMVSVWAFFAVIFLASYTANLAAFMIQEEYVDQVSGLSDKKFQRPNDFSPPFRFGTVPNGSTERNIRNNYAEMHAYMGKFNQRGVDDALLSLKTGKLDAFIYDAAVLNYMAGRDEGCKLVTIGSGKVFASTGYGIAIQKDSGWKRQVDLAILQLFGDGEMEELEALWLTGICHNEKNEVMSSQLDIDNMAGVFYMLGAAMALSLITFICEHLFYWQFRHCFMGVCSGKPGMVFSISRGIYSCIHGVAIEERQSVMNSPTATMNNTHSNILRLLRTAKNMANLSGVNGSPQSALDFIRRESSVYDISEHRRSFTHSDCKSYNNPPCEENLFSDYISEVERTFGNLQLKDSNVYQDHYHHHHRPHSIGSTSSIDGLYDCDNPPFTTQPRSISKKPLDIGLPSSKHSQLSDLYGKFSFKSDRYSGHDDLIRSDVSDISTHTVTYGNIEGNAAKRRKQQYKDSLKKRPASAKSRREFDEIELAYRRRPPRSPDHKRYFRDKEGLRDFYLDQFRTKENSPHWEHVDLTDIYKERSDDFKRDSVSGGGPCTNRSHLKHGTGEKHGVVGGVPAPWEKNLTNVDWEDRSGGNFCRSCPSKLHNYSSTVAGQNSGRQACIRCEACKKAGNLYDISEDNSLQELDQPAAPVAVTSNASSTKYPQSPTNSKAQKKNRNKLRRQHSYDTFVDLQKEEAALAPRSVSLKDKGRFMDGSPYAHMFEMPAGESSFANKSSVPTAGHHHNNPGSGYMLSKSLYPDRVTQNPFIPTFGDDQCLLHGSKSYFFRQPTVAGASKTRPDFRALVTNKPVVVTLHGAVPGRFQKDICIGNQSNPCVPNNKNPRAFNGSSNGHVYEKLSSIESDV
Sigma non-opioid intracellular receptor 1, sequence (Q60492 whole entry): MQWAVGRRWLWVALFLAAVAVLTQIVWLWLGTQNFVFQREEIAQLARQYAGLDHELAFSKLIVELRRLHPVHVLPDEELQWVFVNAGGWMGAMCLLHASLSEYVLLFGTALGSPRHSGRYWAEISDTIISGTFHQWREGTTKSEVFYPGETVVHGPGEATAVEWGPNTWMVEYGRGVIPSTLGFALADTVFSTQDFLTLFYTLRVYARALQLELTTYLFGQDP

SMILES	Ratio Ki (Cavia porcellus)	Ki [1] [nM]	Ki [2] [nM]	inhibition [3]	Ki [4] [nM]
O=C(CN1CCC(O)(c2ccccc2)CC1)c1c[nH]c2ccc(O)cc12	4.7	658	3080	32%	–
N#CC1(c2ccccc2)CCN(CC(=O)c2c[nH]c3ccc(O)cc23)CC1	–	–	–	16%	–
COc1ccc2[nH]cc(C(=O)CN3CCC(O)(c4ccc(Cl)cc4)CC3)c2c1	10.5	7.5	78.5	15%	–
COc1ccc2[nH]cc(C(=O)CN3CCC(C(C)=O)(c4ccccc4)CC3)c2c1	–	–	–	inactive	–
COc1ccc2[nH]cc(C(=O)CN3CCC(C#N)(c4ccccc4)CC3)c2c1	–	–	–	11%	–
CC(=O)C1(c2ccccc2)CCN(CC(=O)c2c[nH]c3ccc(O)cc23)CC1	–	–	–	6%	–
COc1ccc2[nH]cc(C(=O)CN3CCC(c4ccccc4)CC3)c2c1	95.5	20	1910	8%	–
O=C(CN1CCC(O)(c2ccc(Br)cc2)CC1)c1c[nH]c2ccc(O)cc12	3.2	57	185	40%	–
O=C(CN1CCC(O)(c2ccc(Cl)cc2)CC1)c1c[nH]c2ccc(O)cc12	11.9	47	557	26%	–
O=C(CN1CCC(c2ccccc2)CC1)c1c[nH]c2ccc(O)cc12	12	224	2680	51%	–
COc1ccc2[nH]cc(C(=O)CN3CCC(O)(c4ccc(Br)cc4)CC3)c2c1	6	10	60	5%	–
COc1ccc2[nH]cc(C(=O)CN3CCC(O)(c4ccccc4)CC3)c2c1	5	21	103	11%	–
O=C(CN1CCC(Cc2ccccc2)CC1)c1c[nH]c2ccc(O)cc12	61.9	76.5	4730	92%	–
COc1ccc2[nH]cc(C(=O)CN3CCC(Cc4ccccc4)CC3)c2c1	> 500	10	> 5000	86%	1670
